Source: patent US20250075248A1, “SYSTEMS, METHODS, AND DEVICES FOR ANTIMICROBIAL SUSCEPTIBILITY TESTING” (Deepull Diagnostics S.L., priority 2022, published 2025)
≈ marks a conversion by molar mass, not a printed value.

What was measured:
Format in all cases: cell-based
[1] = tested on: Escherichia coli resistant (ATCC700891); assay: Broth microdilution method MIC; conditions: E. coli ATCC700891, read-out: MIC according to broth microdilution method
[2] = tested on: Escherichia coli resistant (ATCC700891); assay: Fast (1 hour) high dose detection of resistant bacteria by fluorescence microscopy
Method: (§1) To rapidly detect high resistant bacteria to a particular antimicrobial agent, bacteria were grown during a short period of time (1 hour) in the presence of high dose of that antimicrobial agent. Two strains of Escherichia coli, one susceptible (ATCC25922) and the other resistant (ATCC700891) to ampicillin were grown until an exponential phase in culture media. Bacteria cultures were diluted in culture media (Mueller Hinton cation adjusted broth) and were incubated at a final concentration of 2×10^4 CFU/mL during 1 hour at 37° C. in the presence of ampicillin at a final concentration of 128 mg/L, 64 mg/L, and 32 mg/L in a final volume of 10 μL. Three replicates were performed for each antibiotic concentration.
(§2) Samples were visualized at time 0 that represents bacteria before any incubation and after 1 hour incubation. 5 μL of each sample were transferred to a 384-well plate with flat polystyrene film bottom and incubated with fluorescence dyes (SYBR Green and Propidium Iodide) during 10 minutes at room temperature in the dark. The 384-well plate was centrifuged during 1 minute at 3000 g in a swinging-bucket movement and observed in an inverted fluorescence microscope. For each sample a composite image covering the bottom of each well was constructed. Images were analyzed with a custom software to count bacteria, detect filamentous bacteria, counts red bacteria, and record the brightness of bacteria. These images are illustrated in FIG. 26A.

[3] = tested on: Escherichia coli susceptible (ATCC25922); assay: as above
Method: as §1, §2

[4] = tested on: Escherichia coli susceptible (ATCC25922); assay: Broth microdilution method MIC; conditions: E. coli ATCC25922, read-out: MIC according to broth microdilution method
[5] = 128 mg/L, 64 mg/L and 32 mg/L, 1 hour at 37° C.

## CC1(C)S[C@@H]2[C@H](NC(=O)[C@H](N)c3ccccc3)C(=O)N2[C@H]1C(=O)O [ampicillin, Ampicillin]
[1]
  MIC: ≥ 128 µg/mL
[2]; [5]
  bacterial growth after 1 hour incubation: showed growth
[2]; all three tested concentrations (128, 64, 32 mg/L)
  filamentous or red bacteria after 1 hour incubation: without presence of filamentous bacteria or red bacteria
[3]; [5]
  bacterial growth after 1 hour incubation: does not grow
[3]; at 128 mg/L
  red (Propidium Iodide, dead) bacteria after 1 hour incubation: presence of red bacteria
[3]; in the three concentrations tested (128, 64, 32 mg/L)
  bacterial morphology after 1 hour incubation: filamentous form
[4]
  MIC: 4 µg/mL (≈ 11.4 µM)
